# Experimental data reported in patent publication US10751356B2, “Compositions and methods for transient up-regulation of Myc in B-cell lymphomas for enhancing P53 independent apoptotic responses to chemotherapy” (THE CHILDREN'S HOSPITAL OF PHILADELPHIA, priority 2013, dated 2020).
# Key:
# [1] = system: Myc/p53ER™ cells; test: Apoptosis of Myc/p53ER B-lymphoma cells (FIGS. 1-3); type: cell-based, mice
# Text: Because many Myc-driven tumors are defective for p53 activity, we sought to determine whether transient up-regulation of Myc also increases cell death in response to chemotherapeutic drugs in a p53-deficient background. For this purpose, we used B-lymphoma cells isolated from bone marrows of p53ER™ knock-in mice and subsequently transduced with a Myc-expressing retrovirus (2,3). This inducible system allowed us to distinguish between p53-dependent (cells treated with tamoxifen) and independent (no tamoxifen added) cell death. Additionally, instead of modulating Myc levels through miRNA inhibitors, which currently have limited clinical utility, we increased Myc stability with a small molecule inhibitor of GSK3β, which promotes proteosomal degradation of Myc. […] To validate this effect in a more relevant setting, we inhibited GSK3β in various Burkitt's lymphoma cell lines and achieved consistent up-regulation of Myc.
# [2] = system: Raji cells; test: Caspase-3/7 Glo activity in Raji cells treated with TRAIL with or without CHIR-99021 (FIG. 9B); type: cell-based, human; settings: increasing concentrations of TRAIL in presence or absence of CHIR-99021
# Experimental: (§1) Raji cells were treated with indicated concentrations of TRAIL for 16 h in the presence or absence of CHIR-99021. (FIG. 9A) Immunoblotting with antibodies to detect cleavage of PARP and caspase-8, as well as Myc, beta-catenin and loading controls Tutbulin, Actin and GAPDH. (FIG. 9B) Caspase-3/7 activity were measured using the bioluminescent-based Caspase-3/7 Glo Kit (Promega). Fold increase in caspase activities relative to untreated cells, are shown for cells treated with TRAIL alone (light grey bars) or with TRAIL and CHIR-99021 (dark grey bars).
# (§2) This finding is relevant since, as mentioned above, Threonine-58 is a hot spot for mutations in Burkitt's lymphoma (Smith-Sorensen et al, JBC 1996).
# [3] = system: Ramos cells; test: Yo-Pro flow cytometry of Ramos cells, apoptotic response to TRAIL (FIG. 8); type: cell-based, human; settings: Ramos cells pre-treated with CHIR99021 for 2 hours followed by 5 h of TRAIL
# Experimental: Ramos cells where left untreated (top-left panel), treated with TRAIL for 5 h (top-right panel), treated with CHIR99021 alone (bottom-left panel) or pre-treated with CHIR99021 for 2 hours followed by 5 h of TRAIL (bottom-right panel). Percentage of death cells was measured by incorporation of the nuclear staining Yo-Pro. Percentages of living and apoptotic cells are shown in the M4 and M5 gates respectively. […] TRAIL engages the extrinsic apoptotic pathway, activating Caspase-8, and is currently in clinical trials for the treatment of different oncological malignancies (reviewed in Stuckey and Shah, Trends in Mol Med 2013).
# [4] = system: Myc; test: Myc stabilization in B lymphoma cell lines with WT or mutant Myc-Thr58 treated with CHIR-99021 (FIG. 7); type: cell-based; settings: B lymphoma cell lines with WT-Myc-Thr58 or Mut-Myc-Thr58, treated for indicated periods of time
# Experimental: FIG. 7: Stabilization of Myc by GSK3-inhibitors requires retention of the Myc-Threonine 58 residue: B lymphoma cell lines with WT-Myc-Thr58 (left panel) or Mut-Myc-Thr58 (right panel) were treated with CHIR-99021 for indicated periods of time.
# As discussed above, treatment of Ramos cells [mutant for p53 and wild type for Myc (intact Threonine-58)] with GSK3-inhibitors increases the apoptotic response to drugs used to treat B cell lymphomas and leukemias within the CHOP-chemotherapeutic regimen: vincristine and doxorubicin. In our model, GSK3 inhibitors prevent phosphorylation of Myc at its Thr-58 residue by GSK3, inhibiting Myc degradation and inducing a transient stabilization and increase in the amount of the Myc protein. It has previously been shown that Myc-Thr58 is a hot spot for mutations in Burkitt's Lymphoma (Smith-Sorensen et al, JBC 1996), and when Myc-Thr58 is altered, the effect of transient stabilization induced by GSK3-inhibitors is lost (FIG. 7). Thus, cooperation of GSK3-inhibitors and chemotherapeutic drugs require retention of the Myc-Threonine-58 residue.
# [5] = system: Raji cells; test: Immunoblotting of Raji cells treated with TRAIL with or without CHIR-99021 (FIG. 9A); type: cell-based, human
# Experimental: as §1, §2
smiles,measurement,setting,value
COc1cccc2c1C(=O)c1c(O)c3c(c(O)c1C2=O)C[C@@](O)(C(=O)CO)C[C@@H]3O[C@H]1C[C@H](N)[C@H](O)[C@H](C)O1 [doxorubicin],cell killing / apoptosis,[1]; absence of active p53 (no tamoxifen),cell killing was rather inefficient
"Cc1c[nH]c(-c2cnc(NCCNc3ccc(C#N)cn3)nc2-c2ccc(Cl)cc2Cl)n1 [CHIR-99021, 6-{2-[4-(2,4-dichlorophenyl)-5-(4-methyl-1H-imidazol-2-yl)-pyrimidin-2-ylamino]ethyl-amino}nicotinonitrile]",caspase 3 activity,[2],higher levels of caspase-3 activity
same,apoptotic response to TRAIL (percentage of dead cells by Yo-Pro),[3],increases the apoptotic response to TRAIL
same,stabilization of Myc,[4],induces stabilization of Myc only when the Myc-Thr-58 residue is retained
same,cleaved caspase 8 and cleaved PARP by immunoblotting,[5]; Raji cells pre-treated with CHIR-99021 followed by TRAIL vs TRAIL only,increase in the amount of cleaved caspase 8 and cleaved PARP
same,apoptotic response to TRAIL,"[5]; Raji cells, TRAIL for 16 h in presence or absence of CHIR-99021",increases the apoptotic response to TRAIL
same,levels of beta-catenin,"[5]; Raji cells, immunoblotting",increased levels of beta-catenin
same,levels of mutant Myc,"[5]; Raji cells, immunoblotting",remain constant
same,cell death with TRAIL and CHIR-99021,"[5]; Raji cells, no functional p53 and mutant Myc-thr58",killed Raji cells
CC/C(=C(\c1ccccc1)c1ccc(OCCN(C)C)cc1)c1ccccc1 [tamoxifen],apoptosis by activation of p53,"[1]; tamoxifen added, without doxorubicin or modulation of Myc",sufficient to induce robust apoptosis
